The source made the active and inactive calls.
Key:
Assay type in all cases: functional, organism-based
[1] = tested on: Escherichia coli; test: Antibacterial activity against Escherichia coli ATCC 11775
[2] = tested on: Staphylococcus aureus; test: Antibacterial activity against Staphylococcus aureus ATCC 12600
[3] = tested on: Salmonella typhimurium; test: Antibacterial activity against Salmonella Typhimurium ATCC 14028; conditions: Salmonella enterica subsp. enterica serovar Typhimurium
[4] = tested on: Bacillus subtilis; test: Antibacterial activity against Bacillus subtilis ATCC 6081

Measured: Activity

COCC1(O)OCCC1=O (stereo not drawn)
inactive: [1] | [2] | [3] | [4]

COC[C@@]1(O)C(=O)CC[C@@]12CC(OC)=C(OC)C2=O
inactive: [1] | [2] | [3] | [4]

— ChEMBL document CHEMBL1148184, “Gloiosiphones A and B, Novel Metabolites from the Red Marine Alga Gloiosiphonia verticillaris” (J Nat Prod, 1993)
